Assays:
Assay in all cases: biochemical
Parameters in all cases: KINOMEscan competition binding, DNA-tagged kinase against immobilised ligand, qPCR read-out
Conditions in all cases: read-out: Percent Control
PRKG2 = PRKG2 (Homo sapiens, UniProt Q13237)
Method: (§1) The KINOMEscan^TM kinase assays[65] were performed by Eurofins DiscoverX Corporation. For each kinase, the assay relies on the ability of the tested compound to compete against an immobilised ligand for binding to the DNA-tagged kinase. RT-qPCR is then used to measure the quantity of kinase molecules bound to the immobilised ligand, which is decreased if the tested compound competed with the kinase-ligand interaction. An 11-point 3-fold serial dilution of IDX compound was prepared in 100% DMSO at 100× final test concentration and subsequently diluted to 1× in the assay. […]

FLT3 = FLT3 (Homo sapiens, UniProt P36888)
Method: as §1

HIPK1 = HIPK1 (Homo sapiens, UniProt Q86Z02)
HIPK1, sequence (Q86Z02 whole entry): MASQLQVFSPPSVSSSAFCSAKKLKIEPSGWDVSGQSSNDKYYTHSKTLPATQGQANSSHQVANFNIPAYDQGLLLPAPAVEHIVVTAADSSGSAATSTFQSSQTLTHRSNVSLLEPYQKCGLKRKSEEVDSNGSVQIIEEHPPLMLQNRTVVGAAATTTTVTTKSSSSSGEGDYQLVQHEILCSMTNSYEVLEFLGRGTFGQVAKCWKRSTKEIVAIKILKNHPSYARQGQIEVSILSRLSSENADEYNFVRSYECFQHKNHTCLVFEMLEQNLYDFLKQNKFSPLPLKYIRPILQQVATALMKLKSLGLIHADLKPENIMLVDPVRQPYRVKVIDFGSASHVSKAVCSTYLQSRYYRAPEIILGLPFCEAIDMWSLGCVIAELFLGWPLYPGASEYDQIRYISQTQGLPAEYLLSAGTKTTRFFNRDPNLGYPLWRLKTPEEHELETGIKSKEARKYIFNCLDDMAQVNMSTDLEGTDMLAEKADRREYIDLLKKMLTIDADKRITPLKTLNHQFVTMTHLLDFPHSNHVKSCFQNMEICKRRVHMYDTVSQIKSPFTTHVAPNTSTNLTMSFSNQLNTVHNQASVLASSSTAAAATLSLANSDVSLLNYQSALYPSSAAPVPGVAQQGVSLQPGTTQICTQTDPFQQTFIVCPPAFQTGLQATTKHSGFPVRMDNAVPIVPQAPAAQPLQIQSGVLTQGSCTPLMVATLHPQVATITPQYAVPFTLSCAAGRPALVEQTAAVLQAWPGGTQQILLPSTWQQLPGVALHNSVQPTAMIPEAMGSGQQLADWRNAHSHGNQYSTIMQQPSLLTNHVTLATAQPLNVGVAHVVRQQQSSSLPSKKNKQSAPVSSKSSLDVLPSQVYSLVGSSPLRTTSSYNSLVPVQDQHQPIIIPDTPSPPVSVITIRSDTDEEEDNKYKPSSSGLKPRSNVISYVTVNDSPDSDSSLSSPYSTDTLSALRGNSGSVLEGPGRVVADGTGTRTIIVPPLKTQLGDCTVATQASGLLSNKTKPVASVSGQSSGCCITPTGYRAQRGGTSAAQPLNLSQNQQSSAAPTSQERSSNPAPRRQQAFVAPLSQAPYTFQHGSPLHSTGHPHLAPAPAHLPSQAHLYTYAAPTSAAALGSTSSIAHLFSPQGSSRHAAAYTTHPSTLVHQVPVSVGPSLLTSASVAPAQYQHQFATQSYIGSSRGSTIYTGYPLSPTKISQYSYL
Method: as §1

CAMK2A = CAMK2A (Homo sapiens, UniProt Q9UQM7)
Method: as §1

EPHA5 = EPHA5 (Homo sapiens, UniProt P54756)
Method: as §1

BMPR1B = BMPR1B (Homo sapiens, UniProt O00238)
Method: as §1

PRKAA2 = PRKAA2 (Homo sapiens, UniProt P54646)
Method: as §1

[1] = biological target: T1, TYK2(JH1domain-catalytic) (Homo sapiens, UniProt P29597)
T1 construct: JH1 domain catalytic
Method: as §1

FGFR3 = FGFR3 (Homo sapiens, UniProt P22607)
FGFR3, sequence (P22607 whole entry): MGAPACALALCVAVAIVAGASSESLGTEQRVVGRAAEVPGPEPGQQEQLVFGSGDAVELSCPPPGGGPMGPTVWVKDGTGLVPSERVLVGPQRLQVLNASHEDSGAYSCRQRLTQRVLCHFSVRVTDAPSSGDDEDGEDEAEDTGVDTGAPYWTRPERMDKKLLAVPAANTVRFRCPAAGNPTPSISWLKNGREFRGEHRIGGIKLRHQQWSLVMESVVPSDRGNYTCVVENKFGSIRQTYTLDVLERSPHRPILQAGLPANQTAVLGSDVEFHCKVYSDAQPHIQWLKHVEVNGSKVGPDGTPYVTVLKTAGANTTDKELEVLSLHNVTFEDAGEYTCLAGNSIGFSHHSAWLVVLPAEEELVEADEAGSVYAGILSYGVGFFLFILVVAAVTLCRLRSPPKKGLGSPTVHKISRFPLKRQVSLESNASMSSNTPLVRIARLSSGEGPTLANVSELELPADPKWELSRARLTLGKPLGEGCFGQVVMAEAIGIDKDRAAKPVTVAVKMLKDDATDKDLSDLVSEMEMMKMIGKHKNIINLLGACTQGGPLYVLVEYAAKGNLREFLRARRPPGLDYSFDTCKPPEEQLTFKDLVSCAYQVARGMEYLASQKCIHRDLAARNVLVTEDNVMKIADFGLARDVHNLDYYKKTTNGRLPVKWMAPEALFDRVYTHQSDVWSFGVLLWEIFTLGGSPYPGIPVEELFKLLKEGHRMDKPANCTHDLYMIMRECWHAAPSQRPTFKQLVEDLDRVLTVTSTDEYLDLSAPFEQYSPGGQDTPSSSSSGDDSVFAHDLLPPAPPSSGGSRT
Method: as §1

MERTK = MERTK (Homo sapiens, UniProt Q12866)
Method: as §1

[2] = biological target: T2, JAK2(JH1domain-catalytic) (Homo sapiens, UniProt O60674)
T2 construct: JH1 domain catalytic
T2 sequence (O60674 whole entry, the tested form may be a part): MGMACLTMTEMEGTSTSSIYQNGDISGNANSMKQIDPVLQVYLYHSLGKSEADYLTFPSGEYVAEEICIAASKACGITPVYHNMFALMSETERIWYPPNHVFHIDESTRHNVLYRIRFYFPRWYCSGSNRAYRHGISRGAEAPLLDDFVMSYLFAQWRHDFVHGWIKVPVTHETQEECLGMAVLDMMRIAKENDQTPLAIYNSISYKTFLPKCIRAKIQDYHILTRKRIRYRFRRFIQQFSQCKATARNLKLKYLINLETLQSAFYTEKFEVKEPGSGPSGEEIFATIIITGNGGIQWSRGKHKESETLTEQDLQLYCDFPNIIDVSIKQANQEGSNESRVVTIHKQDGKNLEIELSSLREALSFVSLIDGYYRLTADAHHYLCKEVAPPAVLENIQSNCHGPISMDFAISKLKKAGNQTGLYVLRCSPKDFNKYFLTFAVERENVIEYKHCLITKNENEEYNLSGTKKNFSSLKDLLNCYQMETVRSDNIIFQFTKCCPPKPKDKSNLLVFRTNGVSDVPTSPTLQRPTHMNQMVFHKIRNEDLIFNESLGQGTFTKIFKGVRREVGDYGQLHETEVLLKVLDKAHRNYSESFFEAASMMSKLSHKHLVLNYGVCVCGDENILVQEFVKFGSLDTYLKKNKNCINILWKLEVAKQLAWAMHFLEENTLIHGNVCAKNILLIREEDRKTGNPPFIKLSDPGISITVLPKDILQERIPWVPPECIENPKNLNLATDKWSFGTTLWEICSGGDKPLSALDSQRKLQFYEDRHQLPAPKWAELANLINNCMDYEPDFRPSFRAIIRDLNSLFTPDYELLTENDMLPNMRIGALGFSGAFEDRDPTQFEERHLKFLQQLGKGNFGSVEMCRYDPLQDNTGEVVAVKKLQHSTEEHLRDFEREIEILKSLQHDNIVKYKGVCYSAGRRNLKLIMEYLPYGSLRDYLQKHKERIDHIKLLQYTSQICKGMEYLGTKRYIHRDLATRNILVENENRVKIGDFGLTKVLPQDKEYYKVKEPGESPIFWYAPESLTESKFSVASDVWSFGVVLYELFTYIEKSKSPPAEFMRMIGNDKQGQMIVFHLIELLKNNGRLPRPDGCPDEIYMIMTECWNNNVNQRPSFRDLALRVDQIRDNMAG
Method: as §1

HIPK2 = HIPK2 (Homo sapiens, UniProt Q9H2X6)
HIPK2, sequence (Q9H2X6 whole entry): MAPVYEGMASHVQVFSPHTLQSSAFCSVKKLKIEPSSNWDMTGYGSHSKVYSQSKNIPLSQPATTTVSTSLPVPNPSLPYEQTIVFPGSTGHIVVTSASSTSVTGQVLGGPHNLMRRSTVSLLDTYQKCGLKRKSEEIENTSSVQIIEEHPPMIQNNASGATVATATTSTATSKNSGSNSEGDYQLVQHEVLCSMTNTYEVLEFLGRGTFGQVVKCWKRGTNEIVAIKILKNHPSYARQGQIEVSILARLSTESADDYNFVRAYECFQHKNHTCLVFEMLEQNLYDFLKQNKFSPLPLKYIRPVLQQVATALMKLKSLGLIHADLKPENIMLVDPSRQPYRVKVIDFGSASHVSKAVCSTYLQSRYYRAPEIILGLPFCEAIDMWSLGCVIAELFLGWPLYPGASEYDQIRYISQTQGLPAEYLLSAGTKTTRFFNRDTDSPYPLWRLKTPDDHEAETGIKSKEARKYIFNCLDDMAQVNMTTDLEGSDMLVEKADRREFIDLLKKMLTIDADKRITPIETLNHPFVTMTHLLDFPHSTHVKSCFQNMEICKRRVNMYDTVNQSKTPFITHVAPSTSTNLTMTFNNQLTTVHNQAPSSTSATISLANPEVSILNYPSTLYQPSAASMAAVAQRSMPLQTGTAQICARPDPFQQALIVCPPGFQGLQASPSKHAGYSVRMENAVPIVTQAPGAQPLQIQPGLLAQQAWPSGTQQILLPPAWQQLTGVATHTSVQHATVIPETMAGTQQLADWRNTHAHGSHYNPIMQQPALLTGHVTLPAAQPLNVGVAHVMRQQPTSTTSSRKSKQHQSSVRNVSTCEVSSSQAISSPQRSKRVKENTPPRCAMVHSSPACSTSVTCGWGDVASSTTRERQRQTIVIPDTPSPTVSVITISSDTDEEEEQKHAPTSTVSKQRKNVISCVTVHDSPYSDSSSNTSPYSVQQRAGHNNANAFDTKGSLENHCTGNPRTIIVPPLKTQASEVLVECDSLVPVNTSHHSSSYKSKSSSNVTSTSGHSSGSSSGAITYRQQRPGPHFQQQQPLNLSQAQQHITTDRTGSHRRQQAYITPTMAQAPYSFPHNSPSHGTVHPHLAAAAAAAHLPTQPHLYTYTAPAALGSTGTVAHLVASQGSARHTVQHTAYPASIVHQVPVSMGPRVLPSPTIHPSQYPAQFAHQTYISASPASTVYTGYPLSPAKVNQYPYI
Method: as §1

MAP2K5 = MAP2K5 (Homo sapiens, UniProt Q13163)
Method: as §1

MAP4K4 = MAP4K4 (Homo sapiens, UniProt O95819)
Method: as §1

KIT-autoinhibited = KIT-autoinhibited (Homo sapiens, UniProt P10721)
Method: as §1

WEE2 = WEE2 (Homo sapiens, UniProt P0C1S8)
Method: as §1

CAMK2G = CAMK2G (Homo sapiens, UniProt Q13555)
Method: as §1

MAP2K2 = MAP2K2 (Homo sapiens, UniProt P36507)
Method: as §1

MARK3 = MARK3 (Homo sapiens, UniProt P27448)
MARK3, sequence (P27448 whole entry): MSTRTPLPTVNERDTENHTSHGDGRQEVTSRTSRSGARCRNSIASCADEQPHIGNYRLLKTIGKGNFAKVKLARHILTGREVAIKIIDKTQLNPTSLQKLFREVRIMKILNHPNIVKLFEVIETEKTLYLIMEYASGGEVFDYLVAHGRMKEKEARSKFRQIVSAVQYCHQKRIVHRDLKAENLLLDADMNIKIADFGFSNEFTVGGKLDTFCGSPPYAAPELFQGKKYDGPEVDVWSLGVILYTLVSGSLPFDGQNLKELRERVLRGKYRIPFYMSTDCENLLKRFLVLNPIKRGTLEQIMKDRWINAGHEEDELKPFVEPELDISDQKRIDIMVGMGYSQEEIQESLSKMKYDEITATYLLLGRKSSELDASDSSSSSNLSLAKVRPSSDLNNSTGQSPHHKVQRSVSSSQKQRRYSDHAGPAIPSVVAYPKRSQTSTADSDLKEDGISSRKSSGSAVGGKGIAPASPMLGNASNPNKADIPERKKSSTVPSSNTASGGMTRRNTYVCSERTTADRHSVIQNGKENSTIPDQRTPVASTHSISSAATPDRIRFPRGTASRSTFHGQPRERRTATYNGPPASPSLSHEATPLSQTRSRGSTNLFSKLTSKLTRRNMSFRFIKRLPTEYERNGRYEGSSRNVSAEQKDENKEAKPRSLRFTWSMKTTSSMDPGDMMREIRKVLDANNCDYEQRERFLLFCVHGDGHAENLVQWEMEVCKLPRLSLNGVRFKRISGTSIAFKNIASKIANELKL
Method: as §1

PIM1 = PIM1 (Homo sapiens, UniProt P11309)
Method: as §1

With `Oc1ccc(C2=Cc3ccc(O)cc3OC2)cc1` [compound 1, idronoxil] the remaining binding at 10 µM (PRKG2) was 71%, the remaining binding at 10 µM (FLT3) was 80% and the remaining binding at 10 µM (HIPK1) was 65%. For the same compound, the remaining binding at 10 µM (CAMK2A) was 87%, the remaining binding at 10 µM (EPHA5) was 97% and the remaining binding at 10 µM (BMPR1B) was 66%. For the same compound, the remaining binding at 10 µM (PRKAA2) was 84%, the remaining binding at 10 µM [1] was 74% and the remaining binding at 10 µM (FGFR3) was 80%. For the same compound, the remaining binding at 10 µM (MERTK) was 97%, the remaining binding at 10 µM [2] was 81% and the remaining binding at 10 µM (HIPK2) was 47%. The remaining binding at 10 µM (MAP2K5) was 62%, the remaining binding at 10 µM (MAP4K4) was 47% and the remaining binding at 10 µM (KIT-autoinhibited) was 60%. For the same compound, the remaining binding at 10 µM (WEE2) was 95%, the remaining binding at 10 µM (CAMK2G) was 85% and the remaining binding at 10 µM (MAP2K2) was 79%. For the same compound, the remaining binding at 10 µM (MARK3) was 100% and the remaining binding at 10 µM (PIM1) was 34%.

— PMC10507085, “Pharmacological inhibition of TBK1/IKKε blunts immunopathology in a murine model of SARS-CoV-2 infection” (Nature Communications, 2023)
